Measurements taken from patent US8496928B2, “Method for preventing and treating cardiovascular diseases with BRCA1” (priority 2008, dated 2013).

Tests used:
[1] = system: rat neonatal ventricular cardiomyocytes (NRVMs); assay: Cardiomyocyte apoptosis, AnnexinV-FITC/PI flow cytometry and cleaved caspase-3 western blot; type: cell-based
Protocol: In FIG. 5A apoptosis in control, BRCA1-overexpressing, doxorubicin-treated and doxorubicin-treated-BRCA1-overexpressing neonatal rat ventricular cardiomyocytes (NRVCM) was assessed by Annexin V-FITC and propidium iodide staining coupled with flow cytometry. Quadrants S1, S2, S3 and S4 respectively represent necrotic, late apoptotic, viable live and early apoptotic NRVCM. FIG. 5B is a representative western blot of cleaved caspase-3 and α-actin proteins in NRVCM infected with either 10 MOI Ad-hBRCA1 or Ad-null vector for 48 hours before being exposed to 2 μM doxorubicin for 24 hours. Data are expressed as mean±SD. n=3. *P<0.05 vs untreated control group. †P<0.01 vs doxorubicin group.
The effect of pifithrin-α on doxorubicin-induced cardiomyocyte apoptosis, with or without overexpression of BRCA1 was examined. […]
BRCA-1 induced gain of function and protection against genotoxic and oxidative stress-induced apoptosis was also examined in vitro. […] Cardiomyocytes were incubated with the virus (human BRCA1 or GFP) for 48 hours after which expression of human BRCA1 or GFP were determined. Expression of BRCA1 was analyzed by real-time PCR and western blotting (see FIGS. 4A and 4B) and expression of GFP was analyzed by live cell video microscopy. […] Based on this observation, 10 MOI was determined to be the best of the three tested concentrations of the adenoviral construct. […]

[2] = system: BRCA1 and p53 interaction; assay: Co-immunoprecipitation of BRCA1 and p53 in cardiomyocytes; type: cell-based, rat; details: agent alone
Protocol: BRCA1 physically interacts with p53 in order to regulate p53 activity in a context dependent manner. Proteins were extracted after treatment and equal amounts (100 μg) of lysates were resolved by SDS PAGE.
Experiments were performed to access the interaction of BRCA1 with p53 in cardiomyocytes. […] Additionally, doxorubicin treatment, in the presence of overexpressing BRCA1 strengthened this association (lane 4, FIG. 6).
For analysis of physical interaction between BRCA1 and p53, cardiomyocytes were maintained and treated in 6-cm culture-dishes. After adenoviral and/or stress treatments, cells were scraped and suspended in 100 μL of RIPA buffer. The total cell lysate was obtained after homogenization and centrifugation at 14,000 g for 30 minutes at 4° C. Protein concentration was determined by the Bradford assay. Aliquots of each fraction (100 μg protein for total cell lysate) were incubated with either 0.5 μg of anti-p53 mouse monoclonal antibody (Cell Signaling Technology, USA) or with 0.5 μg of anti-BRCA1 (Santa Cruz Biotechnology, USA) for 1 hour at 4° C. Addition of protein A-Sepharose (Santa Cruz Biotechnology) and incubation for 16 hours at 4° C. was followed by centrifugation and repetitive washing of the Sepharose beads. […]

p53 = assay: Western blot for p53 and phospho-p53 in cultured cardiomyocytes; type: cell-based, rat; details: NRVMs
Protocol: GAPDH was used as loading control. Phospho-p53 antibodies were directed against serine 15 of p53 protein.
Cardiomyocytes were infected with 10MOI of a replication deficient adenoviral vector containing the CMV promoter and either human BRCA1 or a null vector (human Adenovirus Type5 dE1/E3, Vector Biolabs, USA). Following 48 hours incubation, cardiomyocytes were treated with 21 μM of doxorubicin or 50 μM of H2O2. The inhibitor of p53, pifithrin-α (10 μm, Sigma Aldrich, USA) was added 2 hrs prior to the addition of doxorubicin or hydrogen peroxide. After 24 hours, cardiomyocytes were either trypsinized and collected for flow cytometry or harvested for protein and RNA extraction.

HUVECs = assay: HUVEC apoptosis assays (Annexin V-FITC/PI flow cytometry, cleaved caspase-3, DNA fragmentation); type: cell-based, human; details: ad-null infected HUVECs, 2 μM doxorubicin 24 hours
Protocol: In FIG. 23A ad-null or ad-BRCA1 infected HUVECs were treated with TNFα (20 ng/ml) for 24 hours. Cells were harvested for Annexin V-FITC and Propidium Iodide staining followed by flow cytometry. Total apoptotic cells are shown as mean±SD (n=3 in triplicate, **p<0.01). In FIG. 23B, HUVECs were treated with either siBRCA1 (10 nM) or scrambled siRNA (10 nM) for 24 hours. BRCA1-silenced and control HUVECs were treated with TNFα (20 ng/ml), stained with Annexin V-FITC and Propidium Iodide, and analyzed by flow cytometry. The percentage of total apoptotic cells are presented as mean±SD (n=3 in triplicate, **p<0.01). […] Data was calculated as the percentage of total apoptotic cells and presented as mean±SD (n=3 in triplicate, **p<0.01).
FIG. 31 is a bar graph showing protection of HUVECs against doxorubicin-induced apoptosis by BRCA1 overexpression. […] Data was calculated as the percentage of total apoptotic cells and presented as mean±SD (n=3 in triplicate, *p<0.01 vs. Ad-null group, †p<0.01 vs. Ad-null+2 μM Dox group). […]
Human umbilical vein endothelial cells (HUVECs) were purchased from Cambrex and cultured in MCDB-131 complete medium (Cambrex Corporation). […] These concentrations were determined from pilot optimization studies. […]
Apoptotic and necrotic cell death were assessed in ad-BRCA1 and ad-null infected HUVECs by flow cytometry coupled with the BD Annexin V-FITC Apoptosis Detection Kit. […]

Wild-type mice = assay: Doxorubicin-induced cardiac dysfunction in mice, echocardiography; details: doxorubicin 10 mg/kg i.p.; echocardiography day 3 and day 7
Protocol: Left ventricular function was assessed by echocardiography measuring percent systolic ejection fraction 3 days (FIG. 3A) or 7 days (FIG. 3B) after administration of vehicle, Ad-null vector (40 μl of 10^10 PFU, i.v.), Ad-GFP (40 μl of 10^10 PFU, i.v.), doxorubicin (10 mg/kg, i.p.) or doxorubicin (10 mg/kg, i.p.) with Ad-hBRCA1 (40 μl of 10^10 PFU, i.v.). Left ventricular function was also assessed by measuring fractional shortening values 3 days (FIG. 3C) after administration of vehicle, Ad-null vector (40 μl of 10^10 PFU, i.v.), Ad-GFP (40 μl of 10^10 PFU, i.v.), doxorubicin (10 mg/kg, i.p.) or doxorubicin (10 mg/kg, i.p.) with Ad-hBRCA1 (40 μl of 10^10 PFU, i.v.). *P<0.01 vs corresponding PBS group. †P<0.01 vs corresponding doxorubicin group. # p<0.01 vs. PBS+ad-GFP, ## p<0.001 vs. Dox+ad-BRCA1. n=3 for PBS and GFP groups; n=7 for doxorubicin and doxorubicin-BRCA1 groups. […]
Double-blinded echocardiography was performed on the doxorubicin- and adenoviral vectors-treated mice 3 days and 7 days post-treatment. […] End-diastolic posterior LV wall thickness, LV end-diastolic (LVEDD) and end-systolic LV dimension (LVESD) were measured. During diastole, LV dimension and wall thickness were measured from the maximum chamber cavity; during systole, they were measured during maximum anterior motion of the posterior wall. […]

| SMILES | number of apoptotic cardiomyocytes ([1]; BRCA1-overexpressing cardiomyocytes treated with doxorubicin and PFT-α) | number of apoptotic cells ([1]; cardiomyocytes treated with doxorubicin, PFT-α 10 μm added 2 hrs prior, vs doxorubicin only) | BRCA1 and p53 association [2] | p53 level (p53; agent on its own) | serine-15 phosphorylation of p53 (p53; doxorubicin alone) | apoptosis (HUVECs) | cardiac function (percent systolic ejection fraction, fractional shortening) (Wild-type mice) |
| --- | --- | --- | --- | --- | --- | --- | --- |
| Cc1ccc(C(=O)Cn2c3c(sc2=N)CCCC3)cc1 [PFT-α, pifithrin-α] | no further reduction | significant reductions | – | – | – | – | – |
| COc1cccc2c1C(=O)c1c(O)c3c(c(O)c1C2=O)C[C@@](O)(C(=O)CO)C[C@@H]3O[C@H]1C[C@H](N)[C@H](O)[C@H](C)O1 [doxorubicin] | – | – | decline | upregulated p53 | activated | prevalent | impairment in cardiac function |
